Test results from patent US12281080B2, “Quinoline-based compounds and methods of inhibiting CDK8/19” (University of South Carolina, priority 2018, dated 2025).

What was measured:
Experiment in all cases: KINOMEscan scanMAX
Assay type in all cases: binding
Conditions in all cases: 2000 nM; read-out: Percent Control
[1] = biological target: MTOR (Homo sapiens (Human), UniProt P42345)
[2] = biological target: RPS6KA4(Kin.Dom.1-N-terminal) (Homo sapiens (Human), UniProt O75676)
[3] = biological target: MAPKAPK5 (Homo sapiens (Human), UniProt Q8IW41)
[4] = biological target: PIP5K1A (Homo sapiens (Human), UniProt Q99755)
[5] = biological target: FRK (Homo sapiens (Human), UniProt P42685)
[6] = biological target: PIK4CB (PI4KB) (Homo sapiens (Human), UniProt Q9UBF8)
[7] = biological target: PRKD1 (Homo sapiens (Human), UniProt Q15139)
Chain of PRKD1 (Q15139 whole entry): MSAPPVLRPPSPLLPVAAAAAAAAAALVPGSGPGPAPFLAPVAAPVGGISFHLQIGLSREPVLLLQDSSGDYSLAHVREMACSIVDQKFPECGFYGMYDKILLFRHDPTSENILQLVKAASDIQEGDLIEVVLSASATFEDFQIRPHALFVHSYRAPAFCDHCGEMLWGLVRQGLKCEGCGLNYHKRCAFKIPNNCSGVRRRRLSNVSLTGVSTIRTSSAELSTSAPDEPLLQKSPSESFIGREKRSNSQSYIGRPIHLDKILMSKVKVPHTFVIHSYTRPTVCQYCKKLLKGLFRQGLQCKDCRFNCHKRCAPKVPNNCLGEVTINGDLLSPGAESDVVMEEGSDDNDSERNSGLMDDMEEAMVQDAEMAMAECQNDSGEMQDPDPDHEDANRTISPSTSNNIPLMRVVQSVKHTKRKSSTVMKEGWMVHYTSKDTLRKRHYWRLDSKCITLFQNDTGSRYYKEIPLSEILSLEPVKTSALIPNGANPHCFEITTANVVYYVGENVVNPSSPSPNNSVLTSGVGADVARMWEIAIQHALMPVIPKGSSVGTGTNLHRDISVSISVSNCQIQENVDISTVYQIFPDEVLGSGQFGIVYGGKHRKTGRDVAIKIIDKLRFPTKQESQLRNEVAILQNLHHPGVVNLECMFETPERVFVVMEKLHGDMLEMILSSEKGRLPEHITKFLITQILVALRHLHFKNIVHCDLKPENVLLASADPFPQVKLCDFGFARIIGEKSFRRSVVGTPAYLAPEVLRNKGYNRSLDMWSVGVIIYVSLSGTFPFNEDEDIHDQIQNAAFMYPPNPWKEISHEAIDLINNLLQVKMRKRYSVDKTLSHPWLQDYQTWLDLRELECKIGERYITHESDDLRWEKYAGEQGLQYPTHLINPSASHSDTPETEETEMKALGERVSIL

[8] = biological target: CSNK2A1 (Homo sapiens (Human), UniProt P68400)
[9] = biological target: PIK3CA(E545A) (Homo sapiens (Human), UniProt P42336, E545A)
Chain of PIK3CA(E545A) (P42336 whole entry E545A): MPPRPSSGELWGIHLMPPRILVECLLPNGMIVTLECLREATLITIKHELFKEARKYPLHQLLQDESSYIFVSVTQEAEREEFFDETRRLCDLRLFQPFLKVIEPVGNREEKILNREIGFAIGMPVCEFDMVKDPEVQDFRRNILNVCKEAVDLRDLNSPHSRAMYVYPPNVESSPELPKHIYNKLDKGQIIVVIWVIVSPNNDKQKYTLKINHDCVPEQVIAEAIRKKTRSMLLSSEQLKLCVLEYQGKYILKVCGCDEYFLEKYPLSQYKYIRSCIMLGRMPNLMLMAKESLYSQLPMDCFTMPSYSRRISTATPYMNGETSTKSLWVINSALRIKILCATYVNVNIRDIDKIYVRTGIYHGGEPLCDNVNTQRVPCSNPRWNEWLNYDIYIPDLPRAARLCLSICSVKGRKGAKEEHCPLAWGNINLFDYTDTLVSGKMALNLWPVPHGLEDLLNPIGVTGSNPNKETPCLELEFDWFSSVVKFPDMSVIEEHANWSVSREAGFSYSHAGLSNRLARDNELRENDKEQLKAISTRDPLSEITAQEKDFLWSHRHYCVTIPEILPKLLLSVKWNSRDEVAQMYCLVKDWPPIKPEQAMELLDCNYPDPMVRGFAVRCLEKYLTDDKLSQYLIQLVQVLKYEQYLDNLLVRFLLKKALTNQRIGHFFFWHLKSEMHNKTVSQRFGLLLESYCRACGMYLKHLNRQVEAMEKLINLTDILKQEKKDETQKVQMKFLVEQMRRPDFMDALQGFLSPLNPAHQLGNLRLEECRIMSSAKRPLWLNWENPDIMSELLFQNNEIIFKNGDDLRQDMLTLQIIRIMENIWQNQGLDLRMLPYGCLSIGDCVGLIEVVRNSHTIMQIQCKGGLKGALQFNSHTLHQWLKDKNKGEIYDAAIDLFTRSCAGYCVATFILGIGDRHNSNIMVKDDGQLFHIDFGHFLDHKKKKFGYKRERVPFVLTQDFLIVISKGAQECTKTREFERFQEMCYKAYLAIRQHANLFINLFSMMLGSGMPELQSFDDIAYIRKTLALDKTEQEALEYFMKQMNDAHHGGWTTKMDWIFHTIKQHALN

[10] = biological target: ULK3 (Homo sapiens (Human), UniProt Q6PHR2)
Chain of ULK3 (Q6PHR2 whole entry): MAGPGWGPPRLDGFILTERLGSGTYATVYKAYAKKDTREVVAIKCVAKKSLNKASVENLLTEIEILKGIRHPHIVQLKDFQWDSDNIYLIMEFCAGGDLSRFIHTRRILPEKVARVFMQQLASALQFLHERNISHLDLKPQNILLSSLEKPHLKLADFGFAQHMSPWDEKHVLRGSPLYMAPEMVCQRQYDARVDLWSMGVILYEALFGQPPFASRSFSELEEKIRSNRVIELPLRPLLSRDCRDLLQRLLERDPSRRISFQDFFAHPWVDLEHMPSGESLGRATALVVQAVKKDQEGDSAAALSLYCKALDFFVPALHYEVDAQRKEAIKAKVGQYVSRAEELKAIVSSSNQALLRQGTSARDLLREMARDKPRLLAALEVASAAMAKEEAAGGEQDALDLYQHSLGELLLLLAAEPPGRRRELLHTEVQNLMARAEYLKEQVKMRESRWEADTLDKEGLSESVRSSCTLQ

[11] = biological target: PRKX (Homo sapiens (Human), UniProt P51817)
[12] = biological target: MEK1 (MAP2K1) (Homo sapiens (Human), UniProt Q02750)
[13] = biological target: FYN (Homo sapiens (Human), UniProt P06241)
[14] = biological target: PIK3C2G (Homo sapiens (Human), UniProt O75747)
[15] = biological target: SgK110 (Homo sapiens (Human), UniProt P0C264)
[16] = biological target: BIKE (BMP2K) (Homo sapiens (Human), UniProt Q9NSY1)
[17] = biological target: KIT (Homo sapiens (Human), UniProt P10721)
[18] = biological target: DYRK1B (Homo sapiens (Human), UniProt Q9Y463)
[19] = biological target: DAPK2 (Homo sapiens (Human), UniProt Q9UIK4)
[20] = biological target: SRPK2 (Homo sapiens (Human), UniProt P78362)
[21] = biological target: ABL1(H396P)-phosphorylated (Homo sapiens (Human), UniProt P00519, H396P)
[22] = biological target: PAK4 (Homo sapiens (Human), UniProt O96013)
[23] = biological target: NEK2 (Homo sapiens (Human), UniProt P51955)
Chain of NEK2 (P51955 whole entry): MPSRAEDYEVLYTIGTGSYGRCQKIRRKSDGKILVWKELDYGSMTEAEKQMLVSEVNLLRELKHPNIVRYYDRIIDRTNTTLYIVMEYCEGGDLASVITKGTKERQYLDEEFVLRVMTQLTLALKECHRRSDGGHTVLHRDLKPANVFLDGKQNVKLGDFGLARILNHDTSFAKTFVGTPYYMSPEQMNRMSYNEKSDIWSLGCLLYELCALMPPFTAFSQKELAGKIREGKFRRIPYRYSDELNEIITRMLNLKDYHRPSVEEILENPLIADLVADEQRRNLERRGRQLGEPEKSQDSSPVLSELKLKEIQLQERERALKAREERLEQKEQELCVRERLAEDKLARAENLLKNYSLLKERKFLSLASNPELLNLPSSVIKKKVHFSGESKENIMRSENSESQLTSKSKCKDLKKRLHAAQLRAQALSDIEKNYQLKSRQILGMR

[24] = biological target: DRAK2 (STK17B) (Homo sapiens (Human), UniProt O94768)
[25] = biological target: YANK1 (STK32A) (Homo sapiens (Human), UniProt Q8WU08)
[26] = biological target: MLK2 (MAP3K10) (Homo sapiens (Human), UniProt Q02779)
[27] = biological target: PYK2 (PTK2B) (Homo sapiens (Human), UniProt Q14289)
[28] = biological target: IKK-beta (IKBKB) (Homo sapiens (Human), UniProt O14920)
Chain of IKK-beta (IKBKB) (O14920 whole entry): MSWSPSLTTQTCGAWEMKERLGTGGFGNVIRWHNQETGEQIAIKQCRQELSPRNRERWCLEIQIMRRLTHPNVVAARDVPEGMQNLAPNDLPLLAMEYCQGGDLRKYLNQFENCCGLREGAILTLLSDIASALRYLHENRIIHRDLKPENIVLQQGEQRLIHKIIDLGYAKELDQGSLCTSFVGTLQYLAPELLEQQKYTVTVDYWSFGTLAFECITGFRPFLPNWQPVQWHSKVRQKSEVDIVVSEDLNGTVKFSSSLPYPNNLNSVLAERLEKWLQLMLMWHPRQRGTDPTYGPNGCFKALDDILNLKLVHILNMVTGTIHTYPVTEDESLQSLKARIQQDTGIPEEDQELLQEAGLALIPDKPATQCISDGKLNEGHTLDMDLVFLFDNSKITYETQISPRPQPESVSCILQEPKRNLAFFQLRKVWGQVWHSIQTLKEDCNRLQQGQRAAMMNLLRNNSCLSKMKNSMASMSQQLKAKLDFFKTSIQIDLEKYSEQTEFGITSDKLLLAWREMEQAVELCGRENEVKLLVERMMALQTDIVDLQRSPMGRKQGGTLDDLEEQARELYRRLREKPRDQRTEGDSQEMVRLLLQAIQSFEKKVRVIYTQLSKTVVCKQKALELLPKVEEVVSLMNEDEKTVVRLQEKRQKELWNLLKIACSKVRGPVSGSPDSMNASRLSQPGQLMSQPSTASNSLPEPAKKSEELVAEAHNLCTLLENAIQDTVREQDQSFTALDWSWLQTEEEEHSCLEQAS

[29] = biological target: STK16 (Homo sapiens (Human), UniProt O75716)
[30] = biological target: PKN2 (Homo sapiens (Human), UniProt Q16513)
[31] = biological target: CDC2L1 (CDK11B) (Homo sapiens (Human), UniProt P21127)
[32] = biological target: PRKCE (Homo sapiens (Human), UniProt Q02156)
[33] = biological target: ABL1-phosphorylated (Homo sapiens (Human), UniProt P00519)
[34] = biological target: MAP4K4 (Homo sapiens (Human), UniProt O95819)
[35] = biological target: DCAMKL2 (DCLK2) (Homo sapiens (Human), UniProt Q8N568)
[36] = biological target: AAK1 (Homo sapiens (Human), UniProt Q2M2I8)
[37] = biological target: PLK2 (Homo sapiens (Human), UniProt Q9NYY3)
[38] = biological target: PIK3C2B (Homo sapiens (Human), UniProt O00750)
[39] = biological target: EPHA8 (Homo sapiens (Human), UniProt P29322)
Chain of EPHA8 (P29322 28-1005): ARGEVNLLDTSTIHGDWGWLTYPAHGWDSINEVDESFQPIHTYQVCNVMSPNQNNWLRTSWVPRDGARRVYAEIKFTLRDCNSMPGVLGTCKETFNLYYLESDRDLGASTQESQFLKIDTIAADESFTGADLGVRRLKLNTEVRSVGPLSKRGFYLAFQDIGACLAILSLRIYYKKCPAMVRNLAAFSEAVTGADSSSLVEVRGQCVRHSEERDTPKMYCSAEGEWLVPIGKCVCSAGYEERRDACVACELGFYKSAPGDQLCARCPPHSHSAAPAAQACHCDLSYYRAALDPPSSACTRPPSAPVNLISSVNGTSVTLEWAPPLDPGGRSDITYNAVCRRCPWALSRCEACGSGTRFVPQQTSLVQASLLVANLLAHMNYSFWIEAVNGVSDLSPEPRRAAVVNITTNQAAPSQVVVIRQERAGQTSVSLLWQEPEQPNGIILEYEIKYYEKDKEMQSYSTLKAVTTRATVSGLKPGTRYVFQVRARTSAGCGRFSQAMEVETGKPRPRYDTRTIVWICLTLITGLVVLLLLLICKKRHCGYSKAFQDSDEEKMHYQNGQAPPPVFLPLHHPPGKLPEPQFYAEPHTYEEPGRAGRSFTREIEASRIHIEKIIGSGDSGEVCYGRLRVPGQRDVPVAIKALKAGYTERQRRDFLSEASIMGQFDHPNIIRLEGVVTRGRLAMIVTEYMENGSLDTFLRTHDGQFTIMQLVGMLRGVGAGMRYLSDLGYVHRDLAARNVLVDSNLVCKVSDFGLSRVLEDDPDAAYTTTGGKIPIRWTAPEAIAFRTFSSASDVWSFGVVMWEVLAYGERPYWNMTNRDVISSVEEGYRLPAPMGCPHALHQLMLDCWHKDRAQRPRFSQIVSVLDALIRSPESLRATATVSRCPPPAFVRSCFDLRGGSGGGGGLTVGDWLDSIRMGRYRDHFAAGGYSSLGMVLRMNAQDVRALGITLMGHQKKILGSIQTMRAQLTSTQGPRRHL

[40] = biological target: NDR2 (STK38L) (Homo sapiens (Human), UniProt Q9Y2H1)

Chain of RPS6KA4(Kin.Dom.1-N-terminal) (O75676 33-301): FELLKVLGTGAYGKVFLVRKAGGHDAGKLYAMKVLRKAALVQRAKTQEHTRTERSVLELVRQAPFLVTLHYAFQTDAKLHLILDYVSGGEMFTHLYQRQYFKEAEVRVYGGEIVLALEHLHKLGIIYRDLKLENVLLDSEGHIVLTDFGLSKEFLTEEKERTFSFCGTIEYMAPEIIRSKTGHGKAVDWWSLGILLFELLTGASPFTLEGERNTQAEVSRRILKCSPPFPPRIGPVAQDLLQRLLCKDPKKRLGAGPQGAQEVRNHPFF

## CN1CCN(C(=O)c2ccc3cc(CCNc4ccnc5ccc(C#N)cc45)ccc3c2)CC1 [compound 6148, 4-((2-(6-(4-methylpiperazine-1-carbonyl)naphthalen-2-yl)ethyl)amino)quinoline-6-carbonitrile]
[1]
  remaining binding at 2 µM: 79%
[2]
  remaining binding at 2 µM: 100%
[3]
  remaining binding at 2 µM: 62%
[4]
  remaining binding at 2 µM: 84%
[5]
  remaining binding at 2 µM: 92%
[6]
  remaining binding at 2 µM: 51%
[7]
  remaining binding at 2 µM: 90%
[8]
  remaining binding at 2 µM: 56%
[9]
  remaining binding at 2 µM: 73%
[10]
  remaining binding at 2 µM: 70%
[11]
  remaining binding at 2 µM: 100%
[12]
  remaining binding at 2 µM: 59%
[13]
  remaining binding at 2 µM: 89%
[14]
  remaining binding at 2 µM: 57%
[15]
  remaining binding at 2 µM: 91%
[16]
  remaining binding at 2 µM: 97%
[17]
  remaining binding at 2 µM: 95%
[18]
  remaining binding at 2 µM: 83%
[19]
  remaining binding at 2 µM: 100%
[20]
  remaining binding at 2 µM: 94%
[21]
  remaining binding at 2 µM: 81%
[22]
  remaining binding at 2 µM: 97%
[23]
  remaining binding at 2 µM: 100%
[24]
  remaining binding at 2 µM: 87%
[25]
  remaining binding at 2 µM: 76%
[26]
  remaining binding at 2 µM: 79%
[27]
  remaining binding at 2 µM: 92%
[28]
  remaining binding at 2 µM: 76%
[29]
  remaining binding at 2 µM: 71%
[30]
  remaining binding at 2 µM: 89%
[31]
  remaining binding at 2 µM: 96%
[32]
  remaining binding at 2 µM: 98%
[33]
  remaining binding at 2 µM: 67%
[34]
  remaining binding at 2 µM: 93%
[35]
  remaining binding at 2 µM: 94%
[36]
  remaining binding at 2 µM: 84%
[37]
  remaining binding at 2 µM: 80%
[38]
  remaining binding at 2 µM: 80%
[39]
  remaining binding at 2 µM: 91%
[40]
  remaining binding at 2 µM: 96%
